In assay [1] the target is rat pituitary cells (Rattus norvegicus, UniProt O08725). The note with it: read-out: PIT Cell EC50, GH release, 15 min incubation. A digest of the protocol:
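Primary rat anterior pituitary cells, cultured three days in DME low glucose/10% FBS, were washed, pre-incubated twice for 15 min, then challenged 15 min with test compounds (DMSO ≤0.1%) at 37 °C. Released GH was measured by two-site ELISA; EC50 came from 4-parameter fits, mean of three to four independent determinations.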

In assay [2] the test system is growth hormone secretion. Put plainly: GHRP induced growth hormone secretion, intravenous administration (Rat IV). The note with it: iv injection, serum GH 10 min after injection. The class given is in vivo. A digest of the protocol: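 Female Sprague Dawley rats (24-30 days, 50-90 g) under intraperitoneal pentobarbitone received graded intravenous tail-vein peptide doses in pH 5.0 sodium acetate/mannitol buffer 20 min post-anaesthesia. Blood by cardiac puncture 10 min after dosing; serum GH measured by rat GH ELISA in duplicate.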

Setting [3] is: Table IV, formula III compounds.
Where [4] appears, read: Table III, formula IV compounds.

The source of these data is US7094869B2, “Low molecular weight peptidomimetic growth hormone secretagogues” (Genentech, Inc., priority 1994, dated 2006).

Read-outs that look alike come from different tables or passages of the source. Starred links: 1 amine or outer side, 2 acyl side, 3 side chain; linkers in the order of their positions; H or OH if unused. Non-standard residues stand in square brackets, D forms with d. Residues, ends and D or L forms follow the SMILES beside them. ξ: configuration not given here. dNMe2Nal = CN[C@H](Cc1ccc2ccccc2c1)C(=O)O; dPhe(4-Cl) = N[C@H](Cc1ccc(Cl)cc1)C(=O)O; 2Nal = N[C@@H](Cc1ccc2ccccc2c1)C(=O)O; d2Nal = N[C@H](Cc1ccc2ccccc2c1)C(=O)O; ξNMe2Nal = CNC(Cc1ccc2ccccc2c1)C(=O)O; ξ2Nal = NC(Cc1ccc2ccccc2c1)C(=O)O; NMeGABA = CN(CCCC(=O)[*:2])[*:1]; hPhe = N[C@@H](CCc1ccccc1)C(=O)O; αMeF = C[C@](N)(Cc1ccccc1)C(=O)O; β3hF = N[C@H](CC(=O)O)Cc1ccccc1; Orn = NCCC[C@H](N)C(=O)O; Inp = O=C(O)C1CCNCC1; ξK = NCCCCC(N)C(=O)O; Ava = NCCCCC(=O)O; GABA = NCCCC(=O)O; βAla = NCCC(=O)O

rat pituitary cells, sequence (O08725 whole entry): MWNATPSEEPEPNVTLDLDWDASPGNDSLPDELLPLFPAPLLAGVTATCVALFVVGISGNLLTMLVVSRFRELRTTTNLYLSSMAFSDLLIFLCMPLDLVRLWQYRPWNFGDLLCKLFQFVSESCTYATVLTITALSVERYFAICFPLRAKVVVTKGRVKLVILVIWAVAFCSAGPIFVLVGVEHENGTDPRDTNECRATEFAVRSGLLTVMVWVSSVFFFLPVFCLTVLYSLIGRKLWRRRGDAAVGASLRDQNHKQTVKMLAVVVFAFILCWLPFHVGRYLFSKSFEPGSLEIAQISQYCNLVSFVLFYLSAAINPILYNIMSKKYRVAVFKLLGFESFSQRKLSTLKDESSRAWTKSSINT

As usually defined, the EC50 is the concentration that produces a half-maximal response. Turning to `NCCC[C@H](NC(=O)[C@@H](Cc1ccc2ccccc2c1)NC(=O)[C@@H](Cc1ccc2ccccc2c1)NC(=O)C1CCNCC1)C(N)=O` [(inip) b b O amide] (H-[Inp][d2Nal][d2Nal][Orn]-NH2), the EC50 in assay [1] (setting [3]) was 5.9 nM. Also, the “RAT IV ED50” value in assay [2] (Table IV) was 1 µg.
For `NC(=O)CCNC(=O)[C@H](Cc1ccccc1)NC(=O)[C@@H](Cc1ccc2ccccc2c1)NC(=O)[C@@H](Cc1ccc2ccccc2c1)NC(=O)C1CCNCC1` [(inip) b b F bA amide] (H-[Inp][d2Nal][d2Nal]F[βAla]-NH2), in assay [1] (setting [4]), the EC50 worked out at 0.2 nM. In addition, the “RAT IV ED50” value in assay [2] (Table III) was 2 µg.
For the molecule `NCCCCC(=O)N[C@H](Cc1ccc2ccccc2c1)C(=O)N[C@H](Cc1ccc2ccccc2c1)C(=O)N[C@@H](Cc1ccccc1)C(=O)N1CCC[C@H]1C(N)=O` [(Ava) b b F P amide] (H-[Ava][d2Nal][d2Nal]FP-NH2), in assay [1] (setting [4]), the EC50 was 51 nM. Also, in assay [2] (Table III), the “RAT IV ED50” value worked out at 50 µg.
`NC(=O)C[C@H](Cc1ccccc1)NC(=O)[C@@H](Cc1ccc2ccccc2c1)NC(=O)[C@@H](Cc1ccc2ccccc2c1)NC(=O)C1CCNCC1` [(inip) b b hcF amide, (inip)-DβNal-DβNal-(3(S)-3-benzyl-β-Ala)-amide] (H-[Inp][d2Nal][d2Nal][β3hF]-NH2): the EC50 in assay [1] (setting [3]) came out at 0.2 nM. Further, in assay [2] (Table IV), the “RAT IV ED50” value was determined as 2.5 µg.
As for `NCCCCC(=O)N[C@H](Cc1ccc2ccccc2c1)C(=O)N[C@H](Cc1c[nH]c2ccccc12)C(=O)N[C@@H](Cc1ccccc1)C(=O)N[C@@H](CCCCN)C(N)=O` [(Ava) b w F K amide] (H-[Ava][d2Nal][dW]FK-NH2), in assay [1] (setting [4]), the EC50 was determined as 4.6 nM. For the same molecule, in assay [2] (Table III), the “RAT IV ED50” value is 11.8 µg.
Regarding `CN(C(=O)[C@@H](Cc1ccc2ccccc2c1)NC(=O)C1CCNCC1)[C@H](Cc1ccc2ccccc2c1)C(=O)N[C@@H](Cc1ccccc1)C(N)=O` [(inip) b nmb F amide] (H-[Inp][d2Nal][dNMe2Nal]F-NH2), the EC50 in assay [1] (setting [3]) was determined as 1 nM. Also, in assay [2] (Table IV), the “RAT IV ED50” value was found to be 5 µg.
Consider `NCCCC[C@H](NC(=O)[C@H](Cc1ccccc1)NC(=O)[C@@H](Cc1c[nH]c2ccccc12)NC(=O)[C@@H](Cc1ccc2ccccc2c1)NC(=O)CN)C(N)=O` [G b w F K amide] (H-G[d2Nal][dW]FK-NH2), for which, in assay [1] (setting [4]), the half-maximal effective concentration (EC50) amounted to 0.8 nM. In assay [2] (Table III), the “RAT IV ED50” value came out at 4.8 µg.
Consider `CN(C(=O)CCCCN)C(Cc1ccc2ccccc2c1)C(=O)N[C@H](Cc1ccc2ccccc2c1)C(=O)N[C@@H](Cc1ccccc1)C(=O)NC(CCCCN)C(N)=O` (stereo partly drawn) [(Ava) nmb b F K amide, (5-aminovaleryl)-(N-Me-DβNal)-DβNal-Phe-Lys-amide] (H-[Ava][ξNMe2Nal][d2Nal]F[ξK]-NH2), for which the EC50 in assay [1] (setting [4]) came to 1.8 nM. For the same molecule, the “RAT IV ED50” value in assay [2] (Table III) is 0.4 µg.
As for `NCCCCC(=O)N[C@H](Cc1ccc2ccccc2c1)C(=O)N[C@H](Cc1ccc2ccccc2c1)C(=O)N[C@@H](CCc1ccccc1)C(=O)N[C@@H](CCCCN)C(N)=O` [(Ava) b b hF K amide] (H-[Ava][d2Nal][d2Nal][hPhe]K-NH2), the EC50 in assay [1] (setting [4]) was found to be 5 nM. Moreover, the “RAT IV ED50” value in assay [2] (Table III) worked out at 50 µg.
Take `O=C(N[C@H](Cc1ccc2ccccc2c1)C(=O)N[C@H](Cc1ccc2ccccc2c1)C(=O)N1CCNCC1)C1CCNCC1` [(inip) b b ppz]: in assay [1] (setting [3]), the EC50 amounted to 10 nM. In assay [2] (Table IV), the “RAT IV ED50” value is 10 µg.
`NC[C@H](Cc1ccc2ccccc2c1)NC(=O)[C@@H](Cc1ccc2ccccc2c1)NC(=O)C1CCNCC1` [(inip) b Bmn]: the EC50 in assay [1] (Table V, formula II compounds) is 36 nM. Further, the “RAT IV ED50” value in assay [2] (Table V) was found to be 20 µg.
On to `NCCCC[C@H](NC(=O)[C@H](Cc1ccccc1)NC(=O)[C@@H](Cc1ccc2ccccc2c1)NC(=O)[C@@H](Cc1ccc2ccccc2c1)NC(=O)CCN)C(N)=O` [bA b b F K amide] (H-[βAla][d2Nal][d2Nal]FK-NH2), for which the EC50 in assay [1] (setting [4]) was 4.8 nM. Further, in assay [2] (Table III), the “RAT IV ED50” value was found to be 6.7 µg.
In the case of `C[C@H](N)C(=O)N[C@H](Cc1ccc2ccccc2c1)C(=O)N[C@H](Cc1ccc2ccccc2c1)C(=O)N[C@@H](Cc1ccccc1)C(=O)N[C@@H](CCCCN)C(N)=O` [A b b F K amide] (H-A[d2Nal][d2Nal]FK-NH2), the EC50 in assay [1] (setting [4]) was found to be 2.1 nM. For the same molecule, in assay [2] (Table III), the “RAT IV ED50” value came to 10 µg.
In the case of `NC(=O)CCNC(=O)[C@@H](Cc1ccc2ccccc2c1)NC(=O)[C@@H](Cc1ccc2ccccc2c1)NC(=O)C1CCNCC1` [(inip) b b bA amide] (H-[Inp][d2Nal][d2Nal][βAla]-NH2), in assay [1] (setting [3]), the half-maximal effective concentration (EC50) stood at 10 nM. The “RAT IV ED50” value in assay [2] (Table IV) is 10 µg.
Consider `NCCCC[C@H](NC(=O)[C@H](Cc1ccccc1)NC(=O)[C@@H](Cc1c[nH]c2ccccc12)NC(=O)[C@@H](Cc1c[nH]c2ccccc12)NC(=O)[C@@H](N)Cc1c[nH]cn1)C(N)=O` [H w w F K amide] (H-H[dW][dW]FK-NH2), for which the EC50 in assay [1] (setting [4]) is 25.8 nM. In addition, the “RAT IV ED50” value in assay [2] (Table III) is 50 µg.
Regarding `NC(=O)[C@H](Cc1ccccc1)NC(=O)[C@@H](Cc1ccc(Cl)cc1)NC(=O)[C@@H](Cc1ccc2ccccc2c1)NC(=O)C1CCNCC1` [(inip) b chf F amide] (H-[Inp][d2Nal][dPhe(4-Cl)]F-NH2), in assay [1] (setting [3]), the EC50 was determined as 2.7 nM. In addition, in assay [2] (Table IV), the “RAT IV ED50” value was found to be 5 µg.
Take `NCCCCC(=O)N[C@H](Cc1ccc2ccccc2c1)C(=O)N[C@H](Cc1ccc2ccccc2c1)C(=O)N[C@@H](Cc1ccc2ccccc2c1)C(=O)N[C@@H](CCCCN)C(N)=O` [(Ava) b b B K amide] (H-[Ava][d2Nal][d2Nal][2Nal]K-NH2): the EC50 in assay [1] (setting [4]) amounted to 0.7 nM. Besides, the “RAT IV ED50” value in assay [2] (Table III) came to 50 µg.
Take `O=C(N[C@H](Cc1ccc2ccccc2c1)C(=O)N[C@@H](CO)Cc1ccc2ccccc2c1)C1CCNCC1` [(inip) b bol]: the EC50 in assay [1] (Table V, formula II compounds) worked out at 2 nM. For the same molecule, in assay [2] (Table V), the “RAT IV ED50” value stood at 10 µg.
`NCCCCC(=O)N[C@H](Cc1ccc2ccccc2c1)C(=O)N[C@H](Cc1ccc2ccccc2c1)C(=O)N[C@@H](Cc1ccccc1)C(=O)N[C@@H](CCCCN)C(N)=O` [(Ava) b b F K amide] (H-[Ava][d2Nal][d2Nal]FK-NH2): the EC50 in assay [1] (setting [4]) was found to be 2.8 nM. For the same molecule, the “RAT IV ED50” value in assay [2] (Table III) turned out to be 2.6 µg.
In the same order, the values of `CNCCCC(=O)NC(Cc1ccc2ccccc2c1)C(=O)N[C@H](Cc1ccc2ccccc2c1)C(=O)N[C@@H](Cc1ccccc1)C(=O)NC(CCCCN)C(N)=O` (stereo partly drawn) [(mab) b b F K amide, [4-(N-methylamino)butanoyl]-DβNal-DβNal-Phe-Lys-amide] (NMeGABA-[ξ2Nal][d2Nal]F[ξK]-NH2) are 1.4 nM and 0.7 µg.
On to `CN(C(=O)[C@@H](Cc1ccc2ccccc2c1)NC(=O)C1CCNCC1)[C@H](Cc1ccc2ccccc2c1)C(=O)NC1CCNCC1` [(inip) b nmb api, (inip)-DβNal-(N-Me-DβNal)-N-(4-piperidinyl) amide], for which the EC50 in assay [1] (setting [3]) was 0.5 nM. Besides, the “RAT IV ED50” value in assay [2] (Table IV) amounted to 2 µg.
For `C[C@@](Cc1ccccc1)(NC(=O)[C@@H](Cc1ccc2ccccc2c1)NC(=O)[C@@H](Cc1ccc2ccccc2c1)NC(=O)C1CCNCC1)C(N)=O` [(inip) b b amF amide] (H-[Inp][d2Nal][d2Nal][αMeF]-NH2), the EC50 in assay [1] (setting [3]) came out at 0.5 nM. Also, in assay [2] (Table IV), the “RAT IV ED50” value is 5 µg.
In the case of `CN(C(=O)CCCN)[C@H](Cc1ccc2ccccc2c1)C(=O)N[C@H](Cc1ccc2ccccc2c1)C(=O)N[C@@H](Cc1ccccc1)C(=O)N[C@@H](CCCCN)C(N)=O` [(Ab) nmb b F K amide] (H-[GABA][dNMe2Nal][d2Nal]FK-NH2), in assay [1] (setting [4]), the EC50 was 0.5 nM. Moreover, the “RAT IV ED50” value in assay [2] (Table III) came to 1 µg.
